In patent publication US20250326794A1, “ANTI-CANCER LEUCINE-RICH PEPTIDES AND USES THEREOF” (KING'S COLLEGE LONDON, priority 2019, published 2025):

Key:
[1] = tested on: HEK293T (human embryonic kidney cell); experiment: cells; details: 72 h
[2] = tested on: HMLER (human breast cancer bulk cell); experiment: cells; details: 72 h
Summary of the method: (§1)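 MTT viability after 72 h exposure to 0–100 μM compound (final DMSO 0.5% or 0%), 5×10^3 cells/well; HMLER lines and MCF-10A in MEGM, U2OS in DMEM with 10% FBS. A550 normalized to matching vehicle controls; IC50 interpolated from dose–response curves.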

[3] = tested on: HMLER-shEcad (human breast cancer stem cell); experiment: cells; details: 72 h
Summary of the method: as §1

[4] = tested on: U2OS (human bone osteosarcoma); details: 72 h
Summary of the method: as §1

[5] = Tryptophan fluorescent binding assay, POPC vesicles; details: 50 μM peptide, PBS pH 7.4, lipid per peptide
Summary of the method: (§2)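 Peptide fixed at 50 μM, titrated with POPC or 3POPC/1POPG large unilamellar vesicles (100 nm extruded; 0-5000 μM lipid) in PBS pH 7.4. Tryptophan fluorescence (ex 280, em 300-450 nm) read after 60 min; lipid concentration giving 50% binding reported as lipid/peptide ratio.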

[6] = Tryptophan fluorescent binding assay, 3POPC/1POPG vesicles; details: 50 μM peptide, PBS pH 7.4, lipid per peptide
Summary of the method: as §2

[7] = ANTS/DPX liposome leakage assay, POPC vesicles; assay type: biochemical; details: 0.5 mM vesicles; for Peptide Concentration-induced 50% ANTS/DPX leakage at pH 4.8, POPC Vesicle: pH 4.8, lipid per peptide; for Peptide Concentration-induced 50% ANTS/DPX leakage at pH 7.4, POPC Vesicle: pH 7.4, lipid per peptide
Summary of the method: (§3)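 LUVs (100 nm extruded) of POPC or POPC:POPG 3:1, loaded with 5 mM ANTS/12.5 mM DPX, used at 0.5 mM lipid with peptide 0–20 μM in PBS pH 7.4 or HCl-adjusted PBS pH 4.8. Leakage read after 3 h (ex 350/em 510 nm) against 10% Triton maximum; 50% leakage expressed as lipid per peptide.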

[8] = ANTS/DPX liposome leakage assay, 3POPC/1POPG vesicles; assay type: biochemical; details: 0.5 mM vesicles; for Peptide Concentration-induced 50% ANTS/DPX leakage at pH 4.8, 3POPC/1POPG Vesicle: pH 4.8, lipid per peptide; for Peptide Concentration-induced 50% ANTS/DPX leakage at pH 7.4, 3POPC/1POPG Vesicle: pH 7.4, lipid per peptide
Summary of the method: as §3

SMILES | IC50 [1] [µM] | IC50 [2] [µM] | IC50 [3] [µM] | IC50 [4] [µM] | Lipid Concentration-induced 50% Peptide Binding, POPC Vesicle [5] [L/P] | Lipid Concentration-induced 50% Peptide Binding, 3POPC/1POPG Vesicle [6] [L/P] | Peptide Concentration-induced 50% ANTS/DPX leakage at pH 4.8, POPC Vesicle [7] [L/P] | Peptide Concentration-induced 50% ANTS/DPX leakage at pH 7.4, POPC Vesicle [7] [L/P] | Peptide Concentration-induced 50% ANTS/DPX leakage at pH 4.8, 3POPC/1POPG Vesicle [8] [L/P] | Peptide Concentration-induced 50% ANTS/DPX leakage at pH 7.4, 3POPC/1POPG Vesicle [8] [L/P]
CC(C)C[C@H](NC(=O)CN)C(=O)N[C@@H](CC(C)C)C(=O)N[C@@H](CC(=O)O)C(=O)N[C@@H](CC(C)C)C(=O)N[C@@H](CC(C)C)C(=O)N[C@@H](CCC(=O)O)C(=O)N[C@@H](CC(C)C)C(=O)N[C@@H](CC(C)C)C(=O)N[C@@H](CC(C)C)C(=O)N[C@@H](Cc1c[nH]cn1)C(=O)N[C@@H](C)C(=O)N[C@@H](C)C(=O)NCC(=O)N[C@@H](Cc1c[nH]c2ccccc12)C(N)=O [DEH] | 10.5 ± 4.67 | 5.35 ± 1.91 | 3.6 ± 0.42 | 36.5 ± 3.92 | 0.75 | 1.50 | 63 | 620 | 193 | 548
CC(C)C[C@H](NC(=O)CN)C(=O)N[C@@H](CC(C)C)C(=O)N[C@@H](CCC(=O)O)C(=O)N[C@@H](CC(C)C)C(=O)N[C@@H](CC(C)C)C(=O)N[C@@H](Cc1c[nH]cn1)C(=O)N[C@@H](CC(C)C)C(=O)N[C@@H](CC(C)C)C(=O)N[C@@H](CC(C)C)C(=O)N[C@@H](CCCCN)C(=O)N[C@@H](C)C(=O)N[C@@H](C)C(=O)NCC(=O)N[C@@H](Cc1c[nH]c2ccccc12)C(N)=O [EHK] | 5.35 ± 0.07 | 1.35 ± 0.35 | 0.71 ± 0.13 | 25 | 0.56 | 0.42 | 55 | 981 | 117 | 505
CC(C)C[C@H](NC(=O)CN)C(=O)N[C@@H](CC(C)C)C(=O)N[C@@H](Cc1c[nH]cn1)C(=O)N[C@@H](CC(C)C)C(=O)N[C@@H](CC(C)C)C(=O)N[C@@H](CCCCN)C(=O)N[C@@H](CC(C)C)C(=O)N[C@@H](CC(C)C)C(=O)N[C@@H](CC(C)C)C(=O)N[C@@H](CCCCN)C(=O)N[C@@H](C)C(=O)N[C@@H](C)C(=O)NCC(=O)N[C@@H](Cc1c[nH]c2ccccc12)C(N)=O [HKK] | 9.5 ± 0.99 | 3.4 ± 0.71 | 2.6 ± 0.42 | 12.23 ± 0.11 | 0.18 | 0.14 | 106 | 657 | 106 | 90
CC(C)C[C@H](NC(=O)CN)C(=O)N[C@@H](CC(C)C)C(=O)N[C@@H](Cc1c[nH]cn1)C(=O)N[C@@H](CC(C)C)C(=O)N[C@@H](CC(C)C)C(=O)N[C@@H](Cc1c[nH]cn1)C(=O)N[C@@H](CC(C)C)C(=O)N[C@@H](CC(C)C)C(=O)N[C@@H](CC(C)C)C(=O)N[C@@H](Cc1c[nH]cn1)C(=O)N[C@@H](C)C(=O)N[C@@H](C)C(=O)NCC(=O)N[C@@H](Cc1c[nH]c2ccccc12)C(N)=O [HHH] | 30.6 ± 4.81 | 21.1 ± 6.93 | 9.5 ± 0.99 | 185 ± 7 | 0.46 | 0.82 | 173 | 1133 | 50 | 469
CC(C)C[C@H](NC(=O)CN)C(=O)N[C@@H](CC(C)C)C(=O)N[C@@H](Cc1c[nH]cn1)C(=O)N[C@@H](CC(C)C)C(=O)N[C@@H](CC(C)C)C(=O)N[C@@H](Cc1c[nH]cn1)C(=O)N[C@@H](CC(C)C)C(=O)N[C@@H](CC(C)C)C(=O)N[C@@H](CC(C)C)C(=O)N[C@@H](CCC(=O)O)C(=O)N[C@@H](C)C(=O)N[C@@H](C)C(=O)NCC(=O)N[C@@H](Cc1c[nH]c2ccccc12)C(N)=O [HHE] | 18.4 ± 3.75 | 16.7 ± 2.26 | 10.8 ± 0.78 | 53.2 ± 5.3 | 1.00 | 0.75 | 143 | 842 | 113 | 411
CC(C)C[C@H](NC(=O)CN)C(=O)N[C@@H](CC(C)C)C(=O)N[C@@H](CCCCN)C(=O)N[C@@H](CC(C)C)C(=O)N[C@@H](CC(C)C)C(=O)N[C@@H](Cc1c[nH]cn1)C(=O)N[C@@H](CC(C)C)C(=O)N[C@@H](CC(C)C)C(=O)N[C@@H](CC(C)C)C(=O)N[C@@H](CCC(=O)O)C(=O)N[C@@H](C)C(=O)N[C@@H](C)C(=O)NCC(=O)N[C@@H](Cc1c[nH]c2ccccc12)C(N)=O [KHE] | 26 ± 2.83 | 3.7 ± 0.14 | 2.92 ± 0.17 | 53 ± 2.83 | 0.88 | 0.71 | 183 | 981 | 156 | 188
CC(C)C[C@H](NC(=O)CN)C(=O)N[C@@H](CC(C)C)C(=O)N[C@@H](CCCCN)C(=O)N[C@@H](CC(C)C)C(=O)N[C@@H](CC(C)C)C(=O)N[C@@H](CCCCN)C(=O)N[C@@H](CC(C)C)C(=O)N[C@@H](CC(C)C)C(=O)N[C@@H](CC(C)C)C(=O)N[C@@H](CCC(=O)O)C(=O)N[C@@H](C)C(=O)N[C@@H](C)C(=O)NCC(=O)N[C@@H](Cc1c[nH]c2ccccc12)C(N)=O [KKE] | 4.4 ± 0.14 | 2.05 ± 0.64 | 1.7 | 12.8 ± 1.2 | 0.48 | 0.44 | 143 | 1133 | 131 | 346
CC(C)C[C@H](NC(=O)CN)C(=O)N[C@@H](CC(C)C)C(=O)N[C@@H](CC(=O)O)C(=O)N[C@@H](CC(C)C)C(=O)N[C@@H](CC(C)C)C(=O)N[C@@H](CCCCN)C(=O)N[C@@H](CC(C)C)C(=O)N[C@@H](CC(C)C)C(=O)N[C@@H](CC(C)C)C(=O)N[C@@H](CCCCN)C(=O)N[C@@H](C)C(=O)N[C@@H](C)C(=O)NCC(=O)N[C@@H](Cc1c[nH]c2ccccc12)C(N)=O [DKK] | 3.4 ± 0.28 | 1.95 ± 0.35 | 1.2 ± 0.14 | 10.4 ± 1.7 | 2.75 | 6.88 | 47 | 463 | 227 | 156
